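Where inhibition never reached the appropriate level, the endpoint shown equals the highest concentration tested. Otherwise, values were interpolated linearly from a five-concentration, 48-hour dose response in 96-well plates. Abbreviation: GI50, concentration required for 50% inhibition of growth. The concentration for full growth arrest is given as TGI.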
How the values were obtained:
Assay in all cases: DTP human tumour cell line panel, 48 h
[1] = system: NCI-H23 lung
[2] = system: HCT-15 colon
[3] = system: HOP-92 NSCLC
[4] = system: SW-620 colon
[5] = system: MDA-MB-435
[6] = system: KM12 colon
[7] = system: RXF 393 renal
[8] = system: SF-539 CNS
[9] = system: COLO 205 colon
[10] = system: SK-OV-3 ovarian

Structure (SMILES) | GI50 [1] [µM] | TGI [1] [µM] | GI50 [2] [µM] | TGI [2] [µM] | GI50 [3] [µM] | TGI [3] [µM] | GI50 [4] [µM] | TGI [4] [µM] | GI50 [5] [µM] | TGI [5] [µM] | GI50 [6] [µM] | TGI [6] [µM] | GI50 [7] [µM] | TGI [7] [µM] | GI50 [8] [µM] | TGI [8] [µM] | GI50 [9] [µM] | TGI [9] [µM] | GI50 [10] [µM] | TGI [10] [µM]
C=C1C(=O)O[C@H]2[C@H]1CC/C(COC(=O)c1cc3ccccc3s1)=C\CC[C@@]1(C)O[C@@H]21 | 1.74 | 3.84 | 0.4 | 1.79 | 1.68 | 3.49 | 0.518 | 2.97 | 1.33 | 2.89 | 1.78 | 4.08 | 1.23 | 2.66 | 1.6 | 3.34 | 1.71 | 3.48 | 13.9 | 26.8
Cc1ccc(NC(=O)NCCCOc2ccc(N3C(N)=NC(N)=NC3(C)C)cc2Cl)cc1S(=O)(=O)F | 5 | > 100 | > 100 | > 100 | 18.9 | 75.1 | 2.03 | > 100 | 4.46 | > 100 | 6.29 | > 100 | 98.3 | > 100 | 8.84 | 81.2 | 13.6 | 95.7 | 43.6 | > 100
O=c1[nH]c(=O)n(C2OC(CO)C(O)C(O)C2O)cc1F (stereo not given) |  | > 100 |  | > 100 |  | > 100 |  | > 100 |  | > 100 |  | > 100 |  | > 100 |  | > 100 |  | > 100 |  | > 100
Cc1nc(-c2ccccc2)c(-c2ccccc2)s1 |  | 97.7 |  | 39 |  | 83.6 |  | 39.6 |  | 69.1 |  | 71.2 |  | 49.8 |  | 71.4 |  | 38.8 |  | > 100
CCOC(=O)c1c(C)nc2c(c1N)/C(=C/c1ccc(OC)cc1)C(=O)N2Cc1ccc(F)cc1 | 0.262 | 1.03 | 0.127 | 0.543 | 0.263 | 0.859 | 0.14 | 0.349 | 0.201 | 0.469 | 0.243 | 0.844 | 0.14 | 0.329 | 0.189 | 0.457 | 0.146 | 0.333 | 0.692 | 6.85
Cn1c2ccccc2c2c3[nH]c(=O)[nH]c(=O)c3c3c4ccccc4n(C)c3c21 | 3.47 | 19.4 | 1.62 | > 100 | 3.4 | 14.6 | 2.67 | > 100 | 3.05 | > 100 | 2.51 | > 100 | 1.74 | 5.25 | 1.78 | 6.61 | 2.44 | > 100 | 1.75 | 5.79
O=C(/C=C\n1cnc(-c2cc(C(F)(F)F)cc(C(F)(F)F)c2)n1)NNc1cnccn1 | 0.0661 | 15.7 | 0.098 | 13.4 | 0.094 | 9.21 | 0.0472 | 13.3 | 0.0533 | 1.24 | 0.492 | 17 | 0.028 | 0.225 | 0.0286 | 1.12 | 0.0515 | 5.28 | 0.643 | 25.3
CS(=O)(=O)c1cc(=O)c2ccccc2s1 |  | 24.7 |  | 4.86 |  | 3.71 |  | 3.4 |  | 24.8 |  | 32.3 |  | 9.05 |  | 27.6 |  | 3.26 |  | 32.3
C=C1CC[C@@H]2[C@](C)(COC(C)=O)[C@H](OC(C)=O)CC[C@@]2(C)[C@@H]1CC(Nc1ccc(S(=O)(=O)Nc2ncccn2)cc1)C1=CCOC1=O (stereo not given in full) | 2.11 | 5.38 | 1.21 | 3.33 | 3.1 | 8.85 | 0.864 | 2.25 | 1.58 | 3.77 | 2.33 | 5.54 | 1.95 | 3.58 | 1.5 | 2.94 | 1.78 | 3.8 | 6.27 | 18.3
C/C(=N\Nc1ccc(Cl)cn1)c1ccccn1 | 0.0674 | > 100 | 0.0658 | > 50.4 | 0.134 | 33.9 | 0.0622 | > 100 | 0.382 | > 100 | 0.41 | 18.1 | 0.188 | 24.9 | 0.229 | 3.49 | 0.0227 | 36.7 | 0.098 | 26.9
CCC(=O)c1c(C(F)(F)F)n([O-])c2ccc(C)cc2[n+]1=O | 1.2 | 6.1 | 3.05 | > 50 | 8.69 | > 50 | 11.7 | > 50 | 9.53 | 40.8 | 4.99 | 14.9 | 23.4 | > 50 | 9.19 | 25.3 | 5.24 | 19.6 | 8.45 | 49.3
COc1ccc(OC)c(C(=O)c2oc3ccc(Br)cc3c2N)c1 | 0.649 | 24 | 0.214 | 14.2 | 1.71 | 38.1 | 0.332 | > 66.8 | 0.0466 | 0.253 | 0.348 | 18.4 | 0.3 | 1.69 | 0.237 | 0.712 | 0.406 | 2.11 | 0.515 | 7.07
CCc1oc2ccccc2c1C(=O)c1cc(I)c(O)c(I)c1 | 3.91 | 17.4 | 2.26 | 14.1 | 1.04 | 7.73 | 2.39 | 12.6 | 0.327 | 1.4 | 1.62 | 13 | 2.98 | 16 | 2.28 | 10.4 | 5.05 | 18.7 | 5.46 | 18.4

— PubChem BioAssay (NCI)
